In US11952611B2, “Methods and systems for detection of antibiotic resistance” (Laboratory Corporation of America Holdings, priority 2017, dated 2024):
Read-outs that look alike come from different tables or passages of the source.

Key:
E. coli O157:H7 = assay type: cell-based; conditions: for signal reduction as compared to controls: 30 min antibiotic then 120 min phage
MRSA = experiment: Recombinant phage luciferase assay, oxacillin vs cefoxitin (Table 1), MRSA strains; assay type: cell-based, Staphylococcus aureus
Description: (§1) Bacterial strains were serially diluted to approximately 1×10^3 CFU/mL and transferred to a 96-well plate at 135 μL per well. 15 μL of oxacillin or cefoxitin were added to the wells to reach a final concentration of 1.0 μg/mL or 2.0 μg/mL of oxicillin or 2.0 μg/mL, 4.0 μg/mL, 8.0 μg/mL, or 10.0 μg/mL of cefoxitin. The plate was then sealed and incubated at 37° C. for 2 hours. 10 μL of recombinant phage (1.6×10^8 pfu/mL) was added to each well. The plate was then re-sealed and incubated at 37° C. for 2 hours. A master mix was made containing 15 μL 5× lysis buffer, 50 μL luciferase assay buffer, and 1 μL luciferase substrate per well. 65 μL of master mix was added to each well. Luminescence from the reactions was read on a GLOMAX® Navigator and relative luminal units (RLU) for each reaction were analyzed. RLU values three times greater than an established background RLU level for LB (>750 RLU) were considered positive. The results, shown in Table 1, indicate that the recombinant phage are capable of detecting the tested bacterial strains.

MSSA = experiment: Recombinant phage luciferase assay, oxacillin vs cefoxitin (Table 1), MSSA strains; assay type: cell-based, Staphylococcus aureus
Description: as §1

[1] = strain AR0463 MRSA, detected CFU 419
[2] = strain AR0465 MRSA, detected CFU 111
[3] = strain AR0472 MRSA, detected CFU 190
[4] = strain AR0476 MRSA, detected CFU 194
[5] = strain AR0481 MRSA, detected CFU 43
[6] = strain BAA-1720 MRSA, detected CFU 201
[7] = strain 12600 MSSA, detected CFU 389
[8] = strain AR0484 MSSA, detected CFU 153
[9] = strain AR0488 MSSA, detected CFU 285
[10] = strain AR0491 MSSA, detected CFU 300

## CN[C@H](CC(C)C)C(=O)N[C@H]1C(=O)N[C@@H](CC(N)=O)C(=O)N[C@H]2C(=O)N[C@H]3C(=O)N[C@H](C(=O)N[C@H](C(=O)O)c4cc(O)cc(O)c4-c4cc3ccc4O)[C@H](O)c3ccc(c(Cl)c3)Oc3cc2cc(c3O[C@@H]2O[C@H](CO)[C@@H](O)[C@H](O)[C@H]2O[C@H]2C[C@](C)(N)[C@H](O)[C@H](C)O2)Oc2ccc(cc2Cl)[C@H]1O [vancomycin]
E. coli O157:H7
  cells resistant or sensitive: resistant
E. coli O157:H7; 10 μg/mL, 25 μg/mL, 50 μg/mL, or 100 μg/mL
  signal change upon exposure: signals increased

## CC1(C)S[C@@H]2[C@H](NC(=O)[C@H](N)c3ccccc3)C(=O)N2[C@H]1C(=O)O [ampicillin]
E. coli O157:H7
  cells resistant or sensitive: sensitive
E. coli O157:H7; 10 μg/mL
  signal reduction as compared to controls: about 100 fold
E. coli O157:H7; 25 μg/mL
  signal reduction as compared to controls: ~1400 fold
E. coli O157:H7; 50 μg/mL
  signal reduction as compared to controls: ~2200 fold

## Cc1onc(-c2ccccc2)c1C(=O)N[C@@H]1C(=O)N2[C@@H]1SC(C)(C)[C@@H]2C(=O)O [Oxacillin, oxacillin]
MRSA; several MRSA strains
  detection after incubation with oxacillin: no detection
MRSA; [1]
  Oxacillin (RLU) 1 ug/mL: 426 RLU
  Oxacillin (RLU) 2 ug/mL: 353 RLU
MRSA; [2]
  Oxacillin (RLU) 1 ug/mL: 4944 RLU
  Oxacillin (RLU) 2 ug/mL: 4965 RLU
MRSA; [3]
  Oxacillin (RLU) 1 ug/mL: 348 RLU
  Oxacillin (RLU) 2 ug/mL: 281 RLU
MRSA; [4]
  Oxacillin (RLU) 1 ug/mL: 553 RLU
  Oxacillin (RLU) 2 ug/mL: 212 RLU
MRSA; [5]
  Oxacillin (RLU) 1 ug/mL: 467 RLU
  Oxacillin (RLU) 2 ug/mL: 268 RLU
MRSA; [6]
  Oxacillin (RLU) 1 ug/mL: 23810 RLU
  Oxacillin (RLU) 2 ug/mL: 22560 RLU
MSSA; several MSSA strains
  detection after incubation with oxacillin: no detection
MSSA; [7]
  Oxacillin (RLU) 1 ug/mL: 1459 RLU
  Oxacillin (RLU) 2 ug/mL: 697 RLU
MSSA; [8]
  Oxacillin (RLU) 1 ug/mL: 268 RLU
  Oxacillin (RLU) 2 ug/mL: 219 RLU
MSSA; [9]
  Oxacillin (RLU) 1 ug/mL: 228 RLU
  Oxacillin (RLU) 2 ug/mL: 198 RLU
MSSA; [10]
  Oxacillin (RLU) 1 ug/mL: 245 RLU
  Oxacillin (RLU) 2 ug/mL: 221 RLU
